Results on one compound are retold here after article PMC10338423, “Synthesis and preclinical evaluation of a novel fluorine-18 labeled small-molecule PET radiotracer for imaging of CXCR3 receptor in mouse models of atherosclerosis” (EJNMMI Research, 2023).

Data set [1] can be described thus: Biodistribution study in normal C57BL/6 mice. Type of data set: in vivo, mouse. As for the experimental part: Biodistribution studies were also performed to discover the drug distribution within normal mice. 17-week-old male and female C57BL/6 mice were purchased to match the age of the imaging study group. [^18F]1 was intravenously injected into these mice (N = 4/time point), then they were sacrificed at 10, 30, and 60 min after the injection. Their major organs, including the brain, blood, lung, liver, stomach, heart, spleen, kidney, muscle, bone, large intestine, small intestine, aorta, liquinal lymph nodes (LN), interscapular BAT, and tail, were harvested. Their radioactivity was counted by an automated γ-counter. The biodistribution was calculated as an average of the percent injected dose per gram tissue (%ID/g tissue) where the counted radioactivity of each organ was divided by the weight of each tissue and the total radioactivity that circulated in the mouse body at the time of the euthanasia.
Seventeen-week-old male and female C57BL/6 mice were purchased to match the age of PET imaging mice. They were anesthetized in the anesthesia chamber using 3% isoflurane in oxygen and received 0.74–1.11 MBq of [^18F]1 in 100 μL of 5–10% EtOH in saline containing 0.5% sodium ascorbate. The injected mice were returned to their cages and free until the time of the study. At 10, 30, and 60 min after the [^18F]1 administration, each mouse (N = 4/time point) was anesthetized again and euthanized by cervical dislocation followed by cardiac puncture to take a blood sample. Then, the following organs were harvested: the brain, blood, heart, liver, lung, stomach, large intestine, small intestine, spleen, kidney, bone, muscle, liquinal LN, interscapular BAT, and tail. The radioactivity of each organ was counted by a PerkinElmer Wallac 1480 Wizard^3 Gamma Counter (Waltham, MA). The whole radioactivity that went into the circulation of the mouse was calculated by subtracting the residual radioactivity in the tail from the injected radioactivity. Therefore, the biodistribution was calculated as an average of the percent injected dose per gram of tissue (%ID/g tissue) by dividing the measured radioactivity by the whole radioactivity that actually went into the body and the weight of the tissue.

Another data set concerns the target T1, CXCR3 (Mus musculus, UniProt O88410).
T1 construct: tissue Jackson Laboratory (mice); host or cells: In vivo: atherosclerotic abdominal aorta and brown adipose tissue of ApoE KO mice (high-fat diet) and C57BL/6 control mice (normal diet)
T1 sequence (O88410 1-367): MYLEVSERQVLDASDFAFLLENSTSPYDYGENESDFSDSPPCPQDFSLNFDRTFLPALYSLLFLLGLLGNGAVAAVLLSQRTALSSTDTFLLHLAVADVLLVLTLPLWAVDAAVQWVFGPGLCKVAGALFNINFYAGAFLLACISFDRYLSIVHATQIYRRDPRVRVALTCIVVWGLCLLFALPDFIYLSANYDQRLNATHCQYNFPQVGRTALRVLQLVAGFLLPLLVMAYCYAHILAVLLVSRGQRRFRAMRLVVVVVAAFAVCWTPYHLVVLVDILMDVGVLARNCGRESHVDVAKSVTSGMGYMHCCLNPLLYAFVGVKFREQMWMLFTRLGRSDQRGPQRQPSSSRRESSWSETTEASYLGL
In words: PET/CT imaging, baseline and self-blocking, in C57BL/6 control mice on normal diet. Type of data set: in vivo. An excerpt: [^18F]1 was further evaluated for reliability as a CXCR3 radiotracer using mouse models of atherosclerosis. For this purpose, we tested [^18F]1 in ApoE KO mice, a widely used murine model of atherosclerosis. Six-week-old ApoE KO male mice (N = 6) and C57BL/6 male control mice (i.e., a background strain of ApoE KO mouse, ApoE-wildtype control; N = 6) were purchased from Jackson Laboratory (Bar Harbor, ME). The ApoE KO mice were placed on a high-fat diet over 12 weeks to accelerate atherosclerosis development. […] At 12 weeks, PET/computed tomography (CT) studies were performed using both mice groups. Dynamic PET scans (90 min acquisition) were performed beginning 5 min after the intravenous injection of [^18F]1 followed by a ~ 10 min CT scan. Usually, one week after the baseline PET/CT scan, the corresponding blocking PET/CT scan was performed. This time, 1·HCl salt (5 mg/kg) was used as a blocking agent and intravenously injected 5 min before the radiotracer injection.
All animal studies were performed at the VA Biomolecular Imaging Center (VA BIC) at the Harry S. Truman Memorial Veterans’ Hospital (Columbia, MO). Six-week-old ApoE KO male mice and C57BL/6 control male mice were purchased from Jackson Laboratory. All mice were housed in the controlled vivarium during the studies. All ApoE KO mice were fed with high-fat chow that contained 42% fat, 34% of that contained unsaturated fat (TD.88137, Envigo, Indianapolis, IN), one week after the arrival and continued the feeding until the end of the study. The first PET/CT scans were performed 12 weeks after initiating the high-fat diet, and the second PET/CT scans that used 1·HCl as a blocking agent were performed at least one week after the first PET/CT scans. Meanwhile, C57BL/6 control mice were fed with normal chow over the same schedule to match with ApoE KO mice.
Maximum intensity micro-PET images were obtained on a Siemens INVEON small-animal PET/CT scanner (Siemens Medical Solutions USA, Inc., Malvern, PA). […] The micro-PET data was analyzed using Siemens Inveon Research Workplace, General Analysis software. […]

The mark [2] stands for this setting: 10 min p.i., i.v., C57BL/6 mice.
[3] abbreviates: 1·HCl 5 mg/kg i.v. 5 min before tracer.

Regarding `CC[C@H]1CN(c2ncc(-c3nnco3)cc2Cl)CCN1C1CCN(Cc2ccc(Cl)cc2[18F])CC1` [[^18F]1], in data set [1] (setting [2]), the “uptake in BAT” value came out at 15 % ID/g, the uptake in aorta is on record as 13 % ID/g, the uptake in heart stood at 12 % ID/g and the uptake in kidney was determined as 22 % ID/g. In data set [1] (setting [2]), this compound displayed an uptake in liver of 12 % ID/g and an uptake in lung of 27 % ID/g. Moreover, the “uptake remaining relative to 10 min p.i. (lung, kidney, BAT, aorta, heart)” value in data set [1] (30 min p.i.) is listed as ~ 60%. In data set [1] (30 min p.i., i.v., C57BL/6 mice), this compound gave an uptake in liver of 22 % ID/g. For the same compound, the “uptake remaining relative to 10 min p.i. (lung, kidney, BAT, aorta, heart)” value in data set [1] (60 min p.i.) is ~ 40%. Moreover, on CXCR3 (setting [3]), the “blocking effect in BAT (from AUC of TACs)” value is reported as 45.9% and the “blocking effect in abdominal aorta (from AUC of TACs)” value came to 4.7%. Further, the “standard uptake value (SUV), BAT region” value on CXCR3 (blocking study with 1·HCl 5 mg/kg i.v., stated for both groups) is 1.2–1.5.
